Data taken from US7074811B2 (SmithKline Beecham p.l.c., priority 2000, dated 2006).

Assay: Hygroscopicity of the Hydrochloride (weight gain at 75% relative humidity)
Format: physicochemical
Settings: 43 days

SMILES: CN(CCOc1ccc(CC2SC(=O)NC2=O)cc1)c1ccccn1.Cl (centres unmarked) [Hydrochloride, 5-[4-[2-(N-methyl-N-(2-pyridyl)amino)ethoxy]benzyl]thiazolidine-2,4-dione hydrochloride]
- hygroscopicity classification (75% relative humidity at 21° C.): non-hygroscopic (<2%)
- percentage weight gain (75% relative humidity atmosphere at 21° C., constant weight attained, sample of Example 1): 0.4%
